What all share (assay type): cell-based
In assay [1] the test system is human normal fibroblasts. In words: Promotion of collagen biosynthesis (procollagen type-I C-peptide, PICP, in supernatant). The following applies: 10 ppm, 48 hours, control group 125. On the procedure:
In order to examine the effect on the promotion of collagen biosynthesis that reduces wrinkles and enhances skin elasticity, human normal fibroblasts were seeded into a 96-well microplate at a density of 1×10^4 cells/well, and incubated in DMEM (Dulbecco's Modified Eagle's Medium) medium for 24 hours. After incubation, the medium was replaced with serum-free DMEM media containing 10 ppm of each of dehydroabietic acid (Comparative Example 1), compound K (Comparative Example 2), and a mixture of dehydroabietic acid and compound K (weight ratio of 1:7; Example 1) and then the cells were further incubated for 48 hours. At 24 hours before completion of the incubation, 10 μM ascorbic acid as the positive control was added to each well to promote collagen synthesis. After completion, each well was washed, and the medium was replaced with serum-free DMEM medium, after which the cells were further incubated for 24 hours. After incubation, the supernatant of each well was collected, and the amount of procollagen type-I C-peptide (PICP) in the supernatant was measured using a kit (Takara, Kyoto, Japan) to determine the amount of newly synthesized collagen.

Assay [2] has as its system human normal fibroblasts. In words: Inhibition of lipofuscin accumulation in skin cells (lipofuscin fluorescence). The following applies: for Absorbance (570 nm): 10 ppm, after 10 passages of subculture, excitation 360 nm, emission 570 nm, control group 0.650; for inhibition at 10 ppm: Homo sapiens, Fibroblast, after 10 passages, relative to control group (equation 2), read-out: Lipofusin accumulation inhibition rate (%). On the procedure:
In order to examine the effect on the inhibition of lipofuscin accumulation that prevents aging, human normal fibroblasts were seeded into a 96-well microplate at a density of 1×10^4 cells/well, and incubated in DMEM (Dulbecco's Modified Eagle's Medium) medium for 24 hours. After incubation, the medium was replaced with serum-free DMEM media containing 10 ppm of each of dehydroabietic acid (Comparative Example 1), compound K (Comparative Example 2), and a mixture of dehydroabietic acid and compound K (weight ratio of 1:7; Example 1). Then, the cells were subcultured in a fresh medium every 48 hours. After 10 passages of subculture, the fluorescence of the self-luminescent protein lipofuscin in the cells was measured using a microplate reader with the excitation wavelength of 360 nm and the emission wavelength of 570 nm. Based on the experiment results, the effect on inhibition of lipofuscin accumulation was calculated using the following equation 2. [formula]

Assay [3] deals with human normal fibroblasts. Briefly: Skin cell proliferation (MTT assay). The following applies: 10 ppm, 24 hours; for Cell proliferation effect (%): relative to control group (equation 1); for Absorbance (570 nm): MTT, serum-free DMEM, control group 0.355. As to the method: In order to examine the effect on skin cell proliferation that reduces wrinkles and enhances skin elasticity, human normal fibroblasts were seeded into a 96-well microplate at a density of 1×10^4 cells/well, and incubated in DMEM (Dulbecco's Modified Eagle's Medium) medium for 24 hours. After incubation, the medium was replaced with serum-free DMEM media containing 10 ppm of each of dehydroabietic acid (Comparative Example 1), compound K (Comparative Example 2), and a mixture of dehydroabietic acid and compound K (weight ratio of 1:7; Example 1), and then the cells were further incubated for 24 hours. Then, 10 μl of 3-(4,5-dimethylthiazol-2-yl)-2,5-diphenyl tetrazolium (MTT, 5 mg/ml) was added to each well, which was then allowed to stand for 4 hours, followed by removal of the medium. Then, 100 μl of dimethyl sulfoxide solution was added to each well, and the absorbance at 570 nm was measured with a microplate reader. Based on the experiment results, the cell proliferation effect was calculated using the following equation 1. [formula]

Structures are written as SMILES.

The inhibition is how much of the control response was suppressed.

Consider `O=C1O[C@H]([C@@H](O)CO)C(O)=C1O` [Ascorbic acid, ascorbic acid], for which, in assay [1], the “Amount of collagen synthesized” value stood at 186 ng/2 × 10^4.
On to `CC(C)c1ccc2c(c1)CC[C@H]1[C@](C)(C(=O)O)CCC[C@]21C` [Comparative Example 1, dehydroabietic acid], for which, in assay [2], the “Absorbance (570 nm)” value came to 0.465 and the inhibition at 10 ppm is 28.5%. Further, in assay [3], the “Cell proliferation effect (%)” value amounted to 53.8% and the “Absorbance (570 nm)” value was found to be 0.546. Also, the “Amount of collagen synthesized” value in assay [1] was determined as 174 ng/2 × 10^4.
`CC(C)=CCC[C@](C)(O[C@@H]1O[C@H](CO)[C@@H](O)[C@H](O)[C@H]1O)[C@H]1CC[C@]2(C)[C@@H]1[C@H](O)C[C@@H]1[C@@]3(C)CC[C@H](O)C(C)(C)[C@@H]3CC[C@]12C` [Comparative Example 2, compound K]: in assay [2], the “Absorbance (570 nm)” value was 0.448 and the inhibition at 10 ppm turned out to be 31.1%. In assay [3], the “Cell proliferation effect (%)” value is reported as 46.5% and the “Absorbance (570 nm)” value turned out to be 0.520. The “Amount of collagen synthesized” value in assay [1] is 162 ng/2 × 10^4.

For the origin of these results see patent publication US20190192413A1, “SKIN ANTI-AGING COMPOSITION CONTAINING DEHYDROGENATED ABIETIC ACID AND COMPOUND K” (AMOREPACIFIC CORPORATION, priority 2016, published 2019).
